Patent US20220249441A1, “Homodimeric Tobramycin Adjuvant Repurposes Novobiocin as an Effective Antibacterial Agent Against Gram-Negative Bacteria” (priority 2019, published 2022)
In brackets after ≈: the same amount, converted by molar mass.

Assays:
[1] = tested on: A. baumannii ATCC 17978; experiment: microbe, parasite or virus in culture; assay type: cell-based, Acinetobacter baumannii
Protocol: (§1) Development of Resistance Study. […] Tobramycin and colistin were included as controls. At 24-hour intervals, the cultures were assessed for growth. […] This serial passaging was repeated for 8 days.

[2] = tested on: MDR/XDR P. aeruginosa, Acinetobacter baumannii, Escherichia coli, Klebsiella pneumoniae, and Enterobacter cloacae; assay type: cell-based
Protocol: Next, we investigated whether tobramycin by itself would potentiate novobiocin against Gram-negative bacteria.
Checkerboard Assay. Combination studies with different antibiotics were performed in 96-well plates as previously described (19). Briefly, the antibiotic of interest was serially diluted in MHB along the abscissa while the adjuvant (tobramycin homodimer) was serially diluted in MHB along the ordinate. This creates a 10×7 matrices wherein each well consists of a combination of different antibiotic and adjuvant concentrations. Overnight grown bacterial cultures were diluted in saline to achieve a 0.5 McFarland turbidity, followed by 1:50 dilution in Mueller-Hinton broth (MHB) for inoculation to a final concentration of approximately 5×10^5 CFU/mL. […] MIC was recorded as wells with the lowest concentration of drugs with no bacterial growth. The fractional inhibitory concentration (FIC) for each antibiotic was calculated by dividing the MIC of the antibiotic in the presence of adjuvant by the MIC of the antibiotic alone. Similarly, the FIC of adjuvant was calculated by dividing the MIC of the adjuvant in the presence of antibiotic by the MIC of the adjuvant alone. FIC index is the sum of both FICs. FIC indices of ≤0.5 were deemed synergistic; >0.5-4, no interaction; and >4, antagonistic.

[3] = tested on: P. aeruginosa; experiment: Checkerboard assay (antibiotic + adjuvant combination MIC); assay type: cell-based, Pseudomonas aeruginosa
[4] = tested on: P. aeruginosa PAO1 and efflux deficient mutants, MDR/XDR isolates; experiment: microbe, parasite or virus in culture; assay type: cell-based, Pseudomonas aeruginosa; conditions: Pseudomonas aeruginosa
Protocol: Antimicrobial Susceptibility Assay. The in vitro antimicrobial activity of all compounds/antibiotics against a panel of bacteria was evaluated by microbroth dilution method in accordance with the Clinical and Laboratory Standards Institute (CLSI) guidelines (using ATCC strains as quality control strains) (54). […] The broth with or without bacterial cells was used as positive or negative control, respectively.

[5] = tested on: A. baumannii ATCC 17978 and resistant mutants; experiment: microbe, parasite or virus in culture; assay type: cell-based, Acinetobacter baumannii; conditions: Acinetobacter baumannii
Protocol: Antimicrobial Susceptibility Assay. The in vitro antimicrobial activity of all compounds/antibiotics against a panel of bacteria was evaluated by microbroth dilution method in accordance with the Clinical and Laboratory Standards Institute (CLSI) guidelines (using ATCC strains as quality control strains) (54). Overnight grown bacterial cultures were diluted in saline to achieve a 0.5 McFarland turbidity, followed by 1:50 dilution in Mueller-Hinton broth (MHB) for inoculation to a final concentration of approximately 5×10^5 CFU/mL. […] The lowest concentration that prevented the visible growth of bacteria was defined as the MIC for each antimicrobial agent. The broth with or without bacterial cells was used as positive or negative control, respectively.
as §1

[6] = tested on: P. aeruginosa PAO1; experiment: Outer membrane permeabilization assay (NPN uptake); assay type: cell-based, Pseudomonas aeruginosa
Protocol: Outer Membrane Permeabilization Assay. […] Briefly, an overnight grown P. aeruginosa PAO1 culture was subcultured (1 in 100) in fresh LB broth and grown to a mid-logarithmic phase (approximately 2 h, OD600=0.5-0.6). The cells were harvested by centrifuging for 10 min at 1000 g and room temperature, washed twice in PBS, and resuspended in half volume of PBS. This suspension was used in standard microtiter plate assay. […] PMBN, a known outer membrane permeabilizer, served as a positive control while cells +NPN (without test compounds) served as a negative control. Four independent replicates were conducted, and the data were corrected for any background fluorescence.

[7] = tobramycin-resistant MDR/XDR isolates
[8] = ATCC17978, 18 h, Mutant C (seven serial passages, sub-MICs novobiocin + 7.1 μM compound 1)
[9] = ATCC17978, Mutant A (seven serial passages, sub-MICs novobiocin)
[10] = ATCC17978, Mutant B (seven serial passages, sub-MICs colistin)
[11] = ATCC17978, Wild-type A. baumannii ATCC 17978

## NC[C@H]1O[C@H](O[C@H]2[C@H](O)[C@@H](O[C@H]3O[C@H](CO)[C@@H](O)[C@H](N)[C@H]3O)[C@H](N)C[C@@H]2N)[C@H](N)C[C@@H]1O [Tobramycin]
[1]; Acinetobacter baumannii, ATCC17978, 168 h, read-out: MIC after serial passaging
  MIC: 512 µg/mL (≈ 1100 µM)
[1]; after 7 days of serial passaging
  fold change in MIC: 512 fold
[2]; tobramycin-susceptible and tobramycin-resistant Gram-negative bacteria strains
  FICI with novobiocin: 0.75
[3]; PAO1, all antibiotics tested except tobramycin, vancomycin and colistin
  interaction with antibiotics (checkerboard): not synergistic
[3]; [7]
  FICI with ceftazidime or aztreonam: 0.56-0.75
  tobramycin concentration at which synergy with imipenem was observed: ≥ 100 µM
[3]; tobramycin-susceptible MDR isolates
  FICI with aztreonam, ceftazidime and imipenem: 0.75
[3]; wildtype P. aeruginosa
  FICI with aztreonam, ceftazidime and imipenem: 0.75-1.00
[4]
  MIC: 1 µg/mL (≈ 2.14 µM)
[4]; PAO200 (first column so headed)
  MIC: 1 µg/mL (≈ 2.14 µM)
[4]; PAO200 (second column so headed)
  MIC: 1 µg/mL (≈ 2.14 µM)
[5]; [8]
  MIC: 1 µg/mL
[5]; [9]
  MIC: 1 µg/mL (≈ 2.14 µM)
[5]; [10]
  MIC: 0.25 µg/mL (≈ 0.535 µM)
[5]; [11]
  MIC: 1 µg/mL (≈ 2.14 µM)
[6]
  outer membrane permeabilization (NPN fluorescence): weak fluorescence

## CC(C)(O/N=C(\C(=O)N[C@@H]1C(=O)N2C(C(=O)[O-])=C(C[n+]3ccccc3)CS[C@H]12)c1csc(N)n1)C(=O)O [Ceftazidime, reference compound]
[2]; Gram-negative bacteria
  synergy with novobiocin: did not show any synergy
[3]; P. aeruginosa PAO1, β-lactam antibiotic alone
  MIC Alone: 2 µg/mL
[3]; PA 259-96918
  MIC of CAZ alone: 512 µg/mL
[3]; PA 260-97103
  MIC of CAZ alone: 32 µg/mL
[3]; PA 262-101856
  MIC of CAZ alone: 16 µg/mL
[3]; PA 264-104354
  MIC of CAZ alone: 128 µg/mL
[3]; PA 86052
  MIC of CAZ alone: 64 µg/mL
[3]; PA 88949
  MIC of CAZ alone: 64 µg/mL
[3]; PA 91433
  MIC of CAZ alone: 4 µg/mL
[3]; PA 100036
  MIC of CAZ alone: 8 µg/mL
[3]; PA 101243
  MIC of CAZ alone: 64 µg/mL
[3]; PA 101885
  MIC of CAZ alone: 8 µg/mL
[3]; PA 107092
  MIC of CAZ alone: 128 µg/mL
[3]; PA 108590
  MIC of CAZ alone: 32 µg/mL
[3]; PA 109084
  MIC of CAZ alone: 64 µg/mL
[3]; PA 114228
  MIC of CAZ alone: 8 µg/mL
[3]; PAO1
  MIC of CAZ alone: 2 µg/mL
[3]; PAO200 (efflux-deficient)
  MIC of CAZ alone: 1 µg/mL
[3]; PAO750 (efflux-deficient)
  MIC of CAZ alone: 0.5 µg/mL
[5]; [8]
  MIC: 16 µg/mL
[5]; [9]
  MIC: 32 µg/mL (≈ 58.5 µM)
[5]; [10]
  MIC: 1 µg/mL (≈ 1.83 µM)
[5]; [11]
  MIC: 16 µg/mL (≈ 29.3 µM)
